Measurements: US11884932B2, “In vitro production of medial ganglionic eminence precursor cells” (The Regents of the University of California, priority 2013, dated 2024)

Assays:
[1] = test system: SCID mouse cortex; assay: Tumor incidence after injection of hESC-derived NKX2.1-GFP+ cells into newborn SCID mouse cortex; format: in vivo
Procedure: Excess medium was removed from sorted cell pellets to create concentrated cell suspensions of 1000 cells/nl. Cells were loaded into a beveled glass micropipette (Wiretrol 5 ul, Drummond Scientific Company) mounted on a stereotactic hydraulic injector. P2 CB.17-SCID pups (Charles River) were anesthetized through hypothermia and positioned in a clay head mold on the injector platform. 10-100,000 cells per injection site were delivered transcranially into the right cerebral cortex using the following coordinates: 0.9 mm from the midline (sagittal sinus), and 2.6 mm from lambda. The depth of injection was 0.45 mm from the skin surface. All transplantation experiments adhered to approved UCSF Institutional Animal Care and Use Committee protocols.
Initially, day 35 monolayer cultures were sorted for NKX2.1-GFP+, without PSANCAM selection, and injected into newborn SCID mouse cortex. However, within 4 months, injected mouse brains (12/12 mice) contained tumor-like overgrowths at the injection site and/or at the pial surface near the injection tract (data not shown). These were not pluripotent cell-derived teratomas; OCT4+ cells or polarized neuroepithelial rosettes were not found. […] But, focal growths (˜1 focus/2500 plated cells, n=3) were occasionally detected in extended co-cultures, consistent with tumor formation in vivo. […]

[2] = test system: HES3 NKX2.1-GFP hESC line with i12b-RFP; assay: Flow cytometry of NKX2.1-GFP and i12b-RFP double positive cells; format: cell-based, human; conditions: B27+5F cultures treated with DAPT
Source text: The intergenic DLX½i12b (422) enhancer driving the mCherry RFP reporter gene (i12b-RFP) was delivered into the HES3 NKX2.1-GFP hESC line using lentivirus, and two stable cell lines were generated (#5 and #10) as confirmed by genomic DNA PCR for mCherry. (FIG. 22, F).
The modified lines were differentiated using the B27±5F method, and i12b-RFP expression was detected after three weeks of differentiation, along with NKX2.1. (FIG. 22, G). i12b-RFP+ cells in EBs co-expressed GABAergic neuron marker DLX2 and neuronal marker TUJ1. (FIGS. 22, H and I).
Flow cytometry analysis confirmed that many cells derived with the B27+5F method co-expressed both NKX2.1-GFP and i12b-RFP (FIG. 22, J).

C[C@H](NC(=O)Cc1cc(F)cc(F)c1)C(=O)N[C@H](C(=O)OC(C)(C)C)c1ccccc1 [DAPT]
tumor incidence ([1]; brief addition of DAPT prior to injection, low-density monolayer culture, 3/9 mice): 33%
in vivo tumor incidence ([1]; day 35 cultures pretreated with DAPT and FACS-sorted for both NKX2.1-GFP+ and PSA-NCAM+ cells): 0/6
double positive (NKX2.1-GFP and i12b-RFP) population of MGE derived interneurons [2]: marked increase
